According to patent publication US9487462B2, “Inhibitors of matrix metalloproteinases” (PharmaHungary 2000 Kft., priority 2010, dated 2016):
Where two headings read alike, the source gives them in different places.

Columns and labels:
MMP9 = MMP9 (Homo sapiens, UniProt P14780); experiment: MMP activity assay (fluorogenic substrate), MMP9 catalytic domain; type: biochemical; settings: Table 2
Method: (§1) MMP activity assays were conducted as follows: MMP2, MMP9, MMP13 catalytic domain was expressed in E. coli in form of inclusion bodies followed by refolding and purification.
(§2) The Protocol of the Activity Assay:
(§3) Stock solution of substrate (Mca-Lys-Pro-Leu-Gly-Leu-Dpa-Ala-Arg-NH2) was prepared in DMSO at a concentration of 6 mM. Assays were performed in an assay buffer (50 mM Tris pH 7.5, 300 mM NaCl, 10 μM ZnSO4, 5 mM CaCl2, 0.005% Brij-35). The final DMSO concentration in all assays was 1.0%. […] The assays were carried out at 37° C. The fluorescence changes, resulting from the substrate cleavage, were detected using excitation at 340 nm and emission wavelength of 405 nm using a Wallac 1420 Microplate Reader. The reaction mixtures were preincubated with the inhibitors for 30 minutes. The reactions were started by the addition of MMP substrate, and the fluorescence intensity changes were measured after 60 minutes. The obtained fluorescence values were normalized and % inhibition values calculated. Dose response curves were determined from 6 concentration points using three fold dilution steps, each concentration point was determined in duplicate. IC50 values were calculated from the dose response curves.

MMP2 = MMP2 (Homo sapiens, UniProt P08253); experiment: MMP activity assay (fluorogenic substrate), MMP2 catalytic domain; type: biochemical; settings: Table 2; read-out: MMP2 IC50
Method: as §1, §2, §3

[1] = Cytotoxicity, alamarBlue viability, HCT116; type: cell-based; settings: human, HCT116 colon tumor cells, 48 hours incubation, read-out: HCT116 LC50
Method: (§4) Beside the inhibitory effect on MMPs we tested the cytotoxicity of the selected compounds. These measurements were done in parallel on two cell lines. One of them was the healthy human fibroblast cell line MRC-5 while the other was the human colon tumor cell line HCT116. The viability of the cells was monitored using alamarBlue. This dye is reduced by the cells resulting in an increased fluorescent signal which is proportional to the number of living cells. Cells were incubated with the dilutions of the tested compounds for 48 hours then alamarBlue was added to them for 4 hours. After that the fluorescence changes were detected using excitation at 540 nm and emission wavelength of 590 nm by a Wallac 1420 Microplate Reader. IC50 values were determined for the compounds using six concentrations and duplicate points for each concentration.

[2] = Cytotoxicity, alamarBlue viability, MRC-5; type: cell-based; settings: human, MRC-5 fibroblast cells, 48 hours incubation, read-out: MRC-5 LC50
Method: as §4

MMP-2 = MMP-2 (Rattus norvegicus (Rat), UniProt P33436); experiment: In vitro zymography assay (gelatin), MMP-2; type: biochemical
Method: MMP-2 and MMP-9 enzymes were isolated from rat hearts and from rat spleen while human, recombinant MMP-1 and MMP-13 enzymes used were commercial. MMP-2, -9, -13 enzymes were separated by electrophoresis during non-reducing conditions on 8% SDS-polyacrylamide gels copolymerized with 2 mg/ml gelatin from porcine skin (Sigma Aldrich) while MMP-1 was separated under the same conditions on 8% SDS-polyacrylamide gels copolymerized with 2 mg/ml casein (Sigma Aldrich). […] In case of MMP-13 p-aminophenylmercuric acetate (APMA) was used for enzyme activation at 37° C. for 30 min. After electrophoresis, gels were washed in 2.5% Triton-X 100 with agitation and then incubated for 20 hrs at 37° C. in enzyme incubation buffer (50 mM Tris-HCl, pH 7.5, containing 5 mM CaCl2, 200 mM NaCl) with or without MMP inhibitor. Zymographic gels were stained in Coomassie Brilliant Blue R-250 and de-stained. Gelatin and casein zymograms were scanned. MMP activity is detected as a white zone on a blue background and the clear bands in the gel can be quantified by densitometry. The obtained density values were measured and % inhibition values calculated (Kupai et al., 2010). The table below summarizes the prescreen inhibition values determined for different MMP inhibitors on MMP1, -2, -9, -13.

MMP13 = MMP13 (Homo sapiens (Human), UniProt P45452); experiment: MMP activity assay (fluorogenic substrate), MMP13 catalytic domain; type: biochemical
Method: as §1, §2
as §3, with “The fluorescence changes, resulting from the substrate cleavage, were detected using excitation at 340 nm and emission wavelength of 405 nm using a Wallac 1420 Microplate Reader.” left out

MMP1 = MMP1 (Homo sapiens (Human), UniProt P03956); experiment: MMP activity assay (fluorogenic substrate), MMP1; type: biochemical; settings: Table 2; read-out: MM1 IC50
[3] = test system: neonatal rat cardiac myocytes; experiment: Cytoprotective effect in cardiac myocytes subjected to hypoxia and reoxygenation; type: cell-based
Method: Neonatal rat hearts were digested and isolated cardiomyocytes were plated onto 24-well plastic plates at […]. The cells were maintained at 37° C. in a humidified atmosphere of 5% CO2 and 95% air in a CO2 incubator until confluence was reached. Cultures at day 3 were used for treatments. Cells were kept under normoxic or simulated ischemic conditions, i.e. the growth medium was changed to a normoxic or hypoxic solution and the cells were incubated under 95% air and 5% CO2 or 95% N2 and 5% CO2 at 37° C. for 4 h, respectively as described in detail (Gorbe A, Giricz Z, Szunyog A, Csont T, Burley D S, Baxter G F, Ferdinandy P. Role of cGMP-PKG signaling in the protection of neonatal rat cardiac myocytes subjected to simulated ischemia/reoxygenation. Basic Res Cardiol. 105:643-650, 2010). The positive control ilomastate (0.5 microM) and MMP-inhibitors at different effective concentrations (EC 5, EC 10, EC 20, and EC50 as determined in previous test examples) were applied during normoxia or simulated ischemia and also during reoxygenation. The vehicle was DMSO. Cell viability was determined after Calcein A M fluorescent staining as described (Karliner J S, Honbo N, Summers K, Gray M O, Goetzl E J. The lysophospholipids sphingosine-1-phosphate and lysophosphatidic acid enhance survival during hypoxia in neonatal rat cardiac myocytes. J Mol Cell Cardiol, 33:1713-7, 2001). Total cell count was determined after digitonin treatment to permeabilize the cells by using propidium iodine fluorescent staining (Roy S S, Hajnoczky G. Calcium, mitochondria and apoptosis studied by fluorescence measurements. Methods. 46:213-223, 2008).

Sequence of MMP1 (P03956 100-469, species assumed): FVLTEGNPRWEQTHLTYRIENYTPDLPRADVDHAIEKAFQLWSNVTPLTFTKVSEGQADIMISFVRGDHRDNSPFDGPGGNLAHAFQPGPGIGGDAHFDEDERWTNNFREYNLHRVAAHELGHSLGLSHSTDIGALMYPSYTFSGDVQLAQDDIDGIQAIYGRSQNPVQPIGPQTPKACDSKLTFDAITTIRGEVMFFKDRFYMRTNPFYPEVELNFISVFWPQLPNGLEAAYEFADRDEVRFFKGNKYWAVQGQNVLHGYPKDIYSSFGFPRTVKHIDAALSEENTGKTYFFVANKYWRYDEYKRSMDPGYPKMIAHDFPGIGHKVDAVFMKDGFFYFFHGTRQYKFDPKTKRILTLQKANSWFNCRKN
Sequence of MMP-2 (P33436 110-662): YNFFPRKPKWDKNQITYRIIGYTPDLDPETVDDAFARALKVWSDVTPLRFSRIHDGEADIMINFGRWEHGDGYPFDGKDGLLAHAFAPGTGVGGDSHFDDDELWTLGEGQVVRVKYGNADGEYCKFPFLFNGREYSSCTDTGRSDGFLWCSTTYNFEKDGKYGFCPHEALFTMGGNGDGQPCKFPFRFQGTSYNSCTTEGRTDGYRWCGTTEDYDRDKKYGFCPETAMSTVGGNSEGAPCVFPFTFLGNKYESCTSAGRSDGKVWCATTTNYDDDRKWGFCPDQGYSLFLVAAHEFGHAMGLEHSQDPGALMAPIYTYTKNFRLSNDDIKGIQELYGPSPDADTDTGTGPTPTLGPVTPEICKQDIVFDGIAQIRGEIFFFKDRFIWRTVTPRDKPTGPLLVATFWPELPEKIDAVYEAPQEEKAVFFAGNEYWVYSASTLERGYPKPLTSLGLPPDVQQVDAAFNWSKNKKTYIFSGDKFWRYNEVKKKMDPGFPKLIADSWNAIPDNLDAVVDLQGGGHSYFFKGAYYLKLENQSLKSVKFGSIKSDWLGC

SMILES | IC50 (MMP9) [µM] | IC50 (MMP2) [µM] | IC50 (MMP13; Table 2, read-out: MMP13 IC50) [µM] | IC50 (MMP1) [µM] | CC50 at 48 h [1] [µM] | CC50 at 48 h [2] [µM] | other results
O=C(O)c1csc(CN(Cc2ccc(OCc3ccccc3)cc2)Cc2cccc(F)c2)n1 [Compound 5, 2-[({[4-(Benzyloxy)phenyl]methyl}[(3-fluorophenyl)methyl]amino)methyl]-1,3-thiazole-4-carboxylic acid] | 9.8 | 25 | 4.7 | 6 | 3.5 | 43 | % inhibition MMP-2 (72 kDa) (MMP-2; 1 μM, % ± SD): No inhibition; inhibition at 100 µM (MMP-2; 100 μM, % ± SD, read-out: % inhibition MMP-2 (72 kDa)): 11.1 ± 1.58%
O=C(O)c1csc(CN(Cc2ccc(F)cc2)Cc2ccc(-c3ccccc3)cc2)n1 [Compound 15, 2-({[(4-Fluorophenyl)methyl][(4-biphenyl)methyl]amino}methyl)-1,3-thiazole-4-carboxylic acid] | 20 | 30 | 3 | 17 | 1 | 2.9 | Cytoprotective effect, % cell survival as compared to vehicle DMSO ([3]; normoxia, EC5 concentration 3.0 microM): 95 ± 2%; Cytoprotective effect, % cell survival as compared to vehicle DMSO ([3]; normoxia, EC10 concentration 10.0 microM): 99 ± 2%; Cytoprotective effect, % cell survival as compared to vehicle DMSO ([3]; normoxia, EC20 concentration 30.0 microM): 100 ± 2%; Cytoprotective effect, % cell survival as compared to vehicle DMSO ([3]; normoxia, EC50 concentration 90.0 microM): 83 ± 2 %; Cytoprotective effect, % cell survival as compared to vehicle DMSO ([3]; simulated ischemia, EC5 concentration 3.0 microM): 109 ± 5%; Cytoprotective effect, % cell survival as compared to vehicle DMSO ([3]; simulated ischemia, EC10 concentration 10.0 microM): 117 ± 5 %; Cytoprotective effect, % cell survival as compared to vehicle DMSO ([3]; simulated ischemia, EC20 concentration 30.0 microM): 114 ± 4 %; Cytoprotective effect, % cell survival as compared to vehicle DMSO ([3]; simulated ischemia, EC50 concentration 90.0 microM): 88 ± 4%
CCOC(=O)c1csc(CN(Cc2ccc(OCc3ccccc3)cc2)Cc2cccnc2)n1 [Compound 16, Ethyl 2-[({[4-(benzyloxy)phenyl]methyl}(pyridin-3-ylmethyl)amino)methyl]-1,3-thiazole-4-carboxylate] | 280 | > 500 | 5 | 340 | 1.8 | 1.9 | Cytoprotective effect, % cell survival as compared to vehicle DMSO ([3]; normoxia, EC5 concentration 4.0 microM): 105 ± 2%; Cytoprotective effect, % cell survival as compared to vehicle DMSO ([3]; normoxia, EC10 concentration 8.0 microM): 108 ± 3 %; Cytoprotective effect, % cell survival as compared to vehicle DMSO ([3]; normoxia, EC20 concentration 16.0 microM): 99 ± 2%; Cytoprotective effect, % cell survival as compared to vehicle DMSO ([3]; normoxia, EC50 concentration 32.0 microM): 91 ± 2 %; Cytoprotective effect, % cell survival as compared to vehicle DMSO ([3]; simulated ischemia, EC5 concentration 4.0 microM): 119 ± 3 %; Cytoprotective effect, % cell survival as compared to vehicle DMSO ([3]; simulated ischemia, EC10 concentration 8.0 microM): 119 ± 3 %; Cytoprotective effect, % cell survival as compared to vehicle DMSO ([3]; simulated ischemia, EC20 concentration 16.0 microM): 122 ± 4 %; Cytoprotective effect, % cell survival as compared to vehicle DMSO ([3]; simulated ischemia, EC50 concentration 32.0 microM): 113 ± 4 %
CCOC(=O)c1csc(CN(Cc2ccncc2)Cc2ccc(OCc3ccccc3)cc2)n1 [Compound 20, Ethyl 2-[({[4-(benzyloxy)phenyl]methyl}(pyridin-4-ylmethyl)amino)methyl]-1,3-thiazole-4-carboxylate] | > 500 | > 500 | 7.5 | 325 | 16 | 13 | –
CNC(=O)[C@H](Cc1c[nH]c2ccccc12)NC(=O)[C@@H](CC(=O)NO)CC(C)C [ilomastat, reference compound] | – | – | – | – | – | – | IC50 (MMP-2): 0.71 nM; cytoprotective effect as compared to vehicle-treated cells ([3]; positive control, 0.5 microM): approximately 120%; IC50 (MMP13; read-out: IC50 on MMP13): 0.0002 µM

Now from value to compound, other results behind:

IC50 (MMP9) [µM] | IC50 (MMP2) [µM] | IC50 (MMP13; Table 2, read-out: MMP13 IC50) [µM] | IC50 (MMP1) [µM] | SMILES | CC50 at 48 h [1] [µM] | CC50 at 48 h [2] [µM] | other results
> 500 | > 500 | 34 | > 500 | Cn1cc(C(F)(F)F)nc1CN(Cc1ccc(F)cc1)Cc1ccc(OCc2ccccc2)cc1 [Compound 26, {[4-(Benzyloxy)phenyl]methyl}[(4-fluorophenyl)methyl]{[1-methyl-4-(trifluoromethyl)-1H-imidazol-2-yl]methyl}amine] | 25 | 40 | –
> 500 | > 500 | 10 | 235 | O=C(O)c1c[nH]c(CNCc2ccc(OCc3cccnc3)cc2)n1 [Compound 31, 2-[({[4-(Pyridin-3-ylmethoxy)phenyl]methyl}amino)methyl]-1H-imidazole-4-carboxylic acid] | 70 | 200 | Cytoprotective effect, % cell survival as compared to vehicle DMSO ([3]; normoxia, EC5 concentration 0.3 microM): 97 ± 4%; Cytoprotective effect, % cell survival as compared to vehicle DMSO ([3]; normoxia, EC10 concentration 0.6 microM): 102 ± 5%; Cytoprotective effect, % cell survival as compared to vehicle DMSO ([3]; normoxia, EC20 concentration 1.2 microM): 104 ± 3%; Cytoprotective effect, % cell survival as compared to vehicle DMSO ([3]; normoxia, EC50 concentration 2.5 microM): 105 ± 4%; Cytoprotective effect, % cell survival as compared to vehicle DMSO ([3]; simulated ischemia, EC5 concentration 0.3 microM): 109 ± 5%; Cytoprotective effect, % cell survival as compared to vehicle DMSO ([3]; simulated ischemia, EC10 concentration 0.6 microM): 103 ± 4%; Cytoprotective effect, % cell survival as compared to vehicle DMSO ([3]; simulated ischemia, EC20 concentration 1.2 microM): 111 ± 4%; Cytoprotective effect, % cell survival as compared to vehicle DMSO ([3]; simulated ischemia, EC50 concentration 2.5 microM): 147 ± 2 %
200 | > 500 | 31 | 90 | CCOC(=O)c1csc(CN(Cc2ccc(F)cc2)Cc2ccc(-c3ccccc3)cc2)n1 [Compound 32, 2-{[Biphenyl-4-ylmethyl-(4-fluoro-benzyl)-amino]-methyl}-thiazole-4-carboxylic acid ethylester] | 0.7 | 13 | –
